Entries after “also recorded” stand apart in the source; their conditions may differ.
Key:
H. pylori 26695 = assay: Diffusion disk assay, inhibition halos; type: cell-based, Helicobacter pylori; details: paper disks, 15 μl; 200 mM CORM-2; 150 mM Formula II and Formula III; 24-36 hours
bacteria = assay: Bactericidal effect / bacterial growth, bacterium not given; type: cell-based; details: for bactericidal properties or altered growth kinetics of decomposition products: same concentration as compound of Formula V (50 μM), data not shown
Method: (§1) CO gas and CORM treatment: Overnight cultures of E. coli or S. aureus grown in LB or tryptic soy broth, respectively, were used to inoculate fresh MS medium (E. coli) or LB medium (S. aureus), and the cultures on fresh medium were incubated at 37° C. under the required aeration conditions to an optical density at […] of 0.3. At this point, cells were exposed to a flux of CO gas for 15 min or to CORMs. Untreated cells were bubbled with nitrogen gas or treated with dimethyl sulfoxide, water, or methanol, depending on the solvent used to dissolve the CORM.
Viability assays: The number of viable cells was evaluated by measuring the CFU per milliliter upon plating serial dilutions of the various cultures onto agar plates. The percent survival was calculated as the number of colonies originated by treated cultures divided by the number of colonies formed upon the plating of untreated cultures. Sensitivity tests were conducted by plating 5 μl serial dilutions of cultures grown for 4 h and treated with CORMs, with or without the CO scavenger hemoglobin (Hb [bovine form used at 20 μM; Sigma]), onto agar. The experiments were performed with a minimum of three independent cultures, and the results are presented in the figures as averaged values with error bars representing one standard deviation.

E. coli K-12 ATCC 23716 = type: cell-based, Escherichia coli; details: for effect on viability / growth of E. coli: CO gas flux 15 min, CORM-2 250 μM, CORM-3 400 μM, Formula IV 500 μM aerobic or 200 μM anaerobic, Formula V 50 μM, MS medium; for bactericidal effect on E. coli in the presence of Hb: with CO scavenger Hb, bovine, 20 μM
Method: (§2) Bacterial strains and growth conditions: E. coli K-12 ATCC 23716 and S. aureus NCTC8325 were grown in minimal salts (MS) medium (1.3% [wt/vol] Na2HPO4, 0.3% [wt/vol] KH2PO4, 0.05% [wt/vol] NaCl, and 0.1% [wt/vol] NH4Cl supplemented with 20 mM glucose, 2 mM MgSO4, 100 μM CaCl2, and 0.25% [wt/vol] Casamino Acids) and in Luria-Bertani (LB) medium (1% [wt/vol] tryptone, 0.5% [wt/vol] yeast extract, and 1% [wt/vol] NaCl), respectively, under different oxygen supply conditions. Aerobic experiments were undertaken with flasks filled to one-fifth of their volume, microaerobic tests were conducted with closed flasks filled to one-half of their volume, and anaerobic conditions were produced in rubber-sealed flasks that, once filled with medium and closed, were extensively fluxed with nitrogen gas.
as §1
(§3) Viability assays: The number of viable cells was evaluated by measuring the CFU per milliliter upon plating serial dilutions of the various cultures onto agar plates. The percent survival was calculated as the number of colonies originated by treated cultures divided by the number of colonies formed upon the plating of untreated cultures. Sensitivity tests were conducted by plating 5 μl serial dilutions of cultures grown for 4 h and treated with CORMs, with or without the CO scavenger hemoglobin (Hb [bovine form used at 20 μM; Sigma]), onto agar.

[1] = CO release kinetics: CO released into medium by CORMs (gas chromatography); type: physicochemical; details: media utilized (MS, LB), time scale of the experiment
Method: CO release kinetics: CORMs were mixed with MS or LB medium in sealed vessels, and the vessels were incubated at room temperature under constant stirring and protected from light. Gas samples were collected after 30 min and 4 h and analyzed using a gas chromatograph (Thermo Finnigan Trace) equipped with a CTRI column (Alltech) and a thermal conductivity detector. The CO released was quantified using a calibration curve recorded prior to the reaction course.

S. aureus NCTC8325 = type: cell-based, Staphylococcus aureus; details: for effect on viability / growth of S. aureus: CO gas flux 15 min, CORM-2 250 μM, CORM-3 500 or 400 nM (so in the source), Formula IV 600 μM, Formula V 50 μM, LB medium; for bactericidal effect on S. aureus in the presence of Hb: with CO scavenger Hb, bovine, 20 μM
Method: as §2, §1, §3

hemoglobin (Hb) = biological target: T1, hemoglobin (Hb) (Bos taurus, UniProt P01966+P02070); assay: Transfer of CO from CORMs to Hb (carbonylation, shift of Soret band); type: biochemical, bovine
T1 construct: purchased Sigma

S. aureus = assay: MIC and MBC by tube dilution test; type: cell-based, Staphylococcus aureus; details: minimal medium, at least 18 h at 37° C.
Method: (§4) The investigation of MICs and minimal bactericidal concentrations (MBCs) was carried out by the tube dilution test. Briefly, 2.5 ml of minimal medium was inoculated with an overnight culture of E. coli or S. aureus to give an optical density at 600 nm of 0.005 to 0.01. Different concentrations of CORM-2, between 150 μM and 2 mM, were added to the diluted suspensions in the wells of 24-well plates, and the plates were incubated for at least 18 h at 37° C. and 90 rpm. The concentration of CORM-2 in the first well in the series with no sign of visible growth was reported as the MIC. […] After incubation at 37° C. for 24 h, the lowest concentration of CORM-2 in a culture with no growth was assumed to be the MBC.

E. coli = assay: MIC and MBC by tube dilution test; type: cell-based, Escherichia coli; details: minimal medium, at least 18 h at 37° C.
Method: as §4

T1 sequence (P01966 2-142): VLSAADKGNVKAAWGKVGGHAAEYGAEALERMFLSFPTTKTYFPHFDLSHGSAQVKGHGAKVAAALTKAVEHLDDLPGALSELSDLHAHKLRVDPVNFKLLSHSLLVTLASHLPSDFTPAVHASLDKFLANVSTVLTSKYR
T1 sequence (P02070 whole entry): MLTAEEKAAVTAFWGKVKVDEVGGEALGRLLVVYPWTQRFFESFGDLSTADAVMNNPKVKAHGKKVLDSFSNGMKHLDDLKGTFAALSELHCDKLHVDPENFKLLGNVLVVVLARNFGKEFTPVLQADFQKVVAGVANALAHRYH

Row | SMILES | effect on viability / growth of E. coli (E. coli K-12 ATCC 23716) | release of CO gas upon dissolution in the medium (in words) [1] | effect on viability / growth of S. aureus (S. aureus NCTC8325) | further results
1 | O=[C][Mo]12([C]=O)([C]=O)[O]C(=O)CN(CCN(CC(=O)O)CC(=O)[O]1)CCN(CC(=O)O)CC(=O)[O]2 [compound of Formula III] | – | – | – | bactericidal effect on H. pylori (inhibition halos) (H. pylori 26695): bactericidal effect
2 | CC[N+](CC)(CC)CC.[Br-] [tetraethyl ammonium bromide] | – | – | – | bactericidal properties or altered growth kinetics of decomposition products (bacteria): None of these compounds had bactericidal properties or altered growth kinetics
3 | O=[C]=[Mn]([Br])(=[C]=O)(=[C]=O)(=[C]=O)=[C]=O [compound of Formula IV, bromo(pentacarbonyl)manganese] | strongly reducing the viability; also recorded: more effective in reducing the viability of E. coli cells grown anaerobically | rather small amounts | strongly reducing the viability | bactericidal effect on E. coli in the presence of Hb (E. coli K-12 ATCC 23716): completely eliminated the harmful action; bactericidal effect on S. aureus in the presence of Hb (S. aureus NCTC8325): completely eliminated the harmful action
4 | [Na+].[Na+].[O]=[Mo](=[O])([O-])[O-] [sodium molybdate] | – | – | – | bactericidal properties or altered growth kinetics of decomposition products (bacteria): None of these compounds had bactericidal properties or altered growth kinetics
5 | NCC(=O)O.[CH+]=O.[CH+]=O.[CH+]=O.[Cl][Ru] [CORM-3, tricarbonylchloro(glycinato)ruthenium(II), reference compound] | strongly decreased the viability | neither CORM-2 nor CORM-3 releases CO gas | strongly decreased the viability | time for carbonylation of Hb (in words) (hemoglobin (Hb)): within the mixing time
6 | [C-]#[O+] [CO gas, Carbon monoxide] | significant growth impairment | – | significant growth impairment | concentration of CO needed to become effective as a bactericide (bacteria; CO administered as gas): ca. 1 mM
7 | CC[N+](CC)(CC)CC.O=[C]=[Mo-]([Br])(=[C]=O)(=[C]=O)(=[C]=O)=[C]=O [compound of Formula V, tetraethylammonium molybdenum pentacarbonyl bromide] | strongly reducing the viability | rather small amounts | strongly reducing the viability | bactericidal effect on E. coli in the presence of Hb (E. coli K-12 ATCC 23716): completely eliminated the harmful action; bactericidal effect on S. aureus in the presence of Hb (S. aureus NCTC8325): completely eliminated the harmful action
8 | [C-]#[O+].[C-]#[O+].[C-]#[O+].[C-]#[O+].[C-]#[O+].[C-]#[O+].[Cl][Ru][Cl].[Cl][Ru][Cl] [CORM-2, tricarbonyldichlororuthenium(II) dimer, reference compound] | significantly diminished | neither CORM-2 nor CORM-3 releases CO gas | significantly diminished | bactericidal effect on H. pylori (inhibition halos) (H. pylori 26695): bactericidal effect; MBC/MIC ratio (S. aureus): 1.0; time for carbonylation of Hb (in words) (hemoglobin (Hb)): within the mixing time; MBC/MIC ratio (E. coli): 1.5

From patent US20100196516A1, “TREATMENT OF INFECTIONS BY CARBON MONOXIDE” (priority 2007, published 2010)
